Test results taken from the supplement of paper PMC10949913.

Legend:
Conditions in all cases: 48 h
CU-ACC2 [1] = experiment: area under concentration-response curve (viability) (AUC (a.u.)); higher = less active
Outline: (§1)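 For each of three adrenocortical carcinoma cell lines, 500–1,000 cells/well were placed in 5 µL medium in 1,536-well plates. A 23 nL volume of every library compound was added at 11 concentrations. Following 48 h, a 15-minute room-temperature CellTiter-Glo step preceded luminescence reading, with signals normalised per plate to vehicle and empty-well controls. AC50 and area under the curve were derived by curve fitting, retaining only inhibitory or non-responding curve classes.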

NCI-H295R [2] = experiment: as above
Outline: as §1

CU-ACC1 [3] = experiment: as above
Outline: as §1

CU-ACC2 [4] = experiment: AC50 viability; higher = less potent
Outline: as §1

NCI-H295R [5] = experiment: AC50 viability; higher = less potent
Outline: as §1

CU-ACC1 [6] = experiment: AC50 viability; higher = less potent
Outline: as §1

SMILES | area under concentration-response curve (CU-ACC2 [1]) | area under concentration-response curve (NCI-H295R [2]) | area under concentration-response curve (CU-ACC1 [3]) | AC50 viability (CU-ACC2 [4]) [µM] | AC50 viability (NCI-H295R [5]) [µM] | AC50 viability (CU-ACC1 [6]) [µM]
N[S+]([O-])(=O)C1=CC=C(NC/2=C/C(=O)C3=CC=CC=C3C2=O)C=C1 | 463 | 403 | 290 | 13.2 | 2.35 | 0.59
c1cc(-c2cnn3cc(-c4ccc(OCCN5CCCCC5)cc4)cnc23)ccn1 | 456 | 450 | 404 | 9.34 | 10.5 | 11.8
COC(C)(C)CCn1nc(Nc2c(C)cccc2C)c2cnc(Nc3ccc(OCCN4CCCC4)c(F)c3)nc21 | 467 | 513 | 506 | 14.8 | 11.8 | 14.8
C=CC(=O)Nc1cccc(Oc2nc(Nc3ccc(N4CCN(C)CC4)cc3)ncc2Cl)c1 | 402 | 431 | 428 | 9.34 | 5.9 | 8.33
CCCc1cc(C(=O)N[C@H](Cc2ccc(-c3cccc(OC(F)(F)F)c3)nc2)C(=O)N[C@@H]2CCNC2)sc1C | 447 | 469 | 452 | 18.6 | 18.6 | 13.2
COc1cccc2c1C(=O)c1c(O)c3c(c(O)c1C2=O)C[C@@](O)(C(=O)CO)C[C@@H]3O[C@H]1C[C@H](N)[C@@H](O)[C@H](C)O1 | 507 | 510 | 424 | 8.33 | 18.6 | 10.5
O=C(/C=C/c1ccc(CN(CCO)CCc2c[nH]c3ccccc23)cc1)NO | 345 | 380 | 293 | 0.59 | 1.66 | 0.332
CC(N[C@H]1CCCC[C@@H]1NC(=O)c1ccc(Cl)cc1)c1cccc2ccccc12 (stereo partly specified) | 550 | 422 | 432 | 23.5 | 18.6 | 33.2
O=C(Nc1ccccc1-c1cn2c(CN3CCNCC3)csc2n1)c1cnc2ccccc2n1 | 366 | 358 | 367 | 7.42 | 2.95 | 6.61
C[C@H](NC(=O)/C(C#N)=C/c1cccc(Br)n1)c1ccccc1 | 526 | 442 | 444 | 23.5 | 23.5 | 20.9
CNC(=O)CCc1cc(-c2ccc(-c3ccc(C(F)(F)F)cc3)cc2)n(-c2ccc(N3CCNCC3)cc2)n1 | 476 | 487 | 432 | 7.42 | 8.33 | 4.68
CC(C)c1cnn2c(NCc3ccccc3)cc(N[C@@H](CO)[C@H](O)CO)nc12 | 326 | 395 | 372 | 0.295 | 1.48 | 0.372
C=CC(=O)N1CCC(Oc2cc3c(Nc4ccc(Cl)c(Cl)c4F)ncnc3cc2OC)CC1 | 532 | 440 | 400 | 20.9 | 20.9 | 4.68
CCNC(=O)C#Cc1ccc2c(c1)NC(=O)/C2=C(\Nc1ccc(CN(C)C)cc1)c1ccccc1 | 536 | 524 | 443 | 2.88 | 2.57 | 0.91
Fc1ccc2[nH]ccc2c1-c1nc(N2CCOCC2)c2sc(CN3CCN(CC4CC4)CC3)cc2n1 | 462 | 487 | 482 | 26.3 | 20.9 | 18.6
COc1ccc2c(c[n+](C)c3c4cc5c(cc4ccc23)OCO5)c1OC | 465 | 402 | 445 | 33.2 | 20.9 | 20.9
COC(=O)N[C@H](C(=O)N1CCC[C@H]1c1ncc(-c2ccc(-c3ccc(-c4cnc([C@@H]5CCCN5C(=O)[C@@H](NC(=O)OC)C(C)C)[nH]4)cc3)cc2)[nH]1)C(C)C | 561 | 508 | 506 | 23.5 | 23.5 | 18.6
COc1cc(N2CCN(C)CC2)ccc1Nc1nccc(-c2cn(C)c3cnccc23)n1 | 507 | 464 | 451 | 18.6 | 20.9 | 33.2
O=C(CCCCCCC(=O)N/N=C/c1ccc(N(c2ccccc2)c2ccccc2)cc1)NO | 371 | 382 | 381 | 10.5 | 1.18 | 6.61
COc1cccc2c1C(=O)c1c(O)c3c(c(O)c1C2=O)C[C@@](O)(C(=O)CO)CC3OC1CC(N2CCOC(OC)C2)C(O)C(C)O1 (stereo partly specified) | 302 | 282 | 284 | 0.059 | 0.0833 | 0.0833
Cc1cc(Cl)ccc1OCCCC(=O)NO | 512 | 495 | 442 | 18.6 | 20.9 | 20.9

SMILES | area under concentration-response curve (CU-ACC2 [1]) | area under concentration-response curve (NCI-H295R [2]) | area under concentration-response curve (CU-ACC1 [3]) | AC50 viability (CU-ACC2 [4]) [µM] | AC50 viability (NCI-H295R [5]) [µM] | AC50 viability (CU-ACC1 [6]) [µM]
Cn1ncc(Cl)c1-c1cc(C(=O)NC(CN)Cc2ccc(F)c(F)c2)oc1Cl (stereo unspecified) | 422 | 403 | 393 | 16.6 | 5.9 | 6.61
C[C@@]12C(=O)OC(=O)[C@]1(C)[C@H]1CC[C@@H]2O1 | 431 | 434 | 442 | 10.5 | 4.68 | 7.42
c1cc(Nc2cc(C3CC3)n[nH]2)nc(Nc2ccc3nc[nH]c3c2)n1 | 408 | 462 | 419 | 0.332 | 7.42 | 1.05
CCN1C(=O)\C(=C/C2=C(C)N=C(N)N=C12)C3=CC=N[NH]3 | 455 | 431 | 397 | 3.32 | 5.25 | 4.17
CN1CCN(c2cc(C(=O)Nc3ccc4c(c3)-c3c(c(C(N)=O)nn3-c3ccc(F)cc3)CC4)c(Cl)cn2)CC1 | 521 | 480 | 427 | 20.9 | 10.5 | 9.34
CCOc1cc(C(=O)N2CCC(N3CCN(C)CC3)CC2)ccc1Nc1ncc2c(n1)N(C1CCCC1)c1ccccc1C(=O)N2C | 494 | 448 | 423 | 18.6 | 18.6 | 18.6
C=CCNC1=C2CC(C)CC(OC)C(O)C(C)/C=C(\C)C(OC(N)=O)C(OC)/C=C/C=C(\C)C(=O)NC(=CC1=O)C2=O (stereo unspecified) | 480 | 491 | 410 | 1.18 | 10.5 | 3.32
Cc1cc(Nc2cc(CN3CCOCC3)c3nc(C)c(Cc4ccc(Cl)cc4F)n3n2)[nH]n1 | 439 | 420 | 440 | 18.6 | 23.5 | 37.2
CCN(CC)CCOC1=CC=C(NC2=NC=C3\C=C(/C(=O)N(C)C3=N2)C4=C(Cl)C=CC=C4Cl)C=C1 | 511 | 461 | 436 | 7.42 | 4.17 | 7.42
CCCCOc1c(C(=O)c2c(F)cc(C)cc2F)cnc2[nH]ncc12 | 407 | 432 | 419 | 2.09 | 2.35 | 1.48
CC[C@@]1(O)C(=O)OCc2c1cc1n(c2=O)Cc2cc3c(CN(C)C)c(O)ccc3nc2-1.Cl | 483 | 488 | 428 | 16.6 |  | 16.6
Oc1cc(-c2nc(-c3ccccc3)[nH]c2-c2ccncc2)ccc1Cl | 514 | 522 | 464 | 16.6 |  | 20.9
CN1C(=O)/C(=C(NC2=CC=C(I)C=C2F)\C3=C1\N=C/N(C[C@@H](O)CO)C3=O)F | 497 | 534 | 431 | 11.8 |  | 8.33
C[C@@H]\1CC(=O)N\N=C1C2=CC=C(NN=C(C#N)C#N)C=C2 | 425 | 363 | 375 | 16.6 |  | 11.8
CN(C)C1CCN(C(=O)c2ccc(NC(=O)Nc3ccc(-c4nc(N5CCOCC5)nc(N5CCOCC5)n4)cc3)cc2)CC1 | 345 | 485 | 411 | 4.17 |  | 2.35
CN[C@@H]1CN(C[C@H]1OC)C2=NC3=C(C=C2)C(=O)C(=C\N3C4=NC=CS4)/C(O)=O | 474 | 445 | 475 | 4.56 |  | 10.2
O=C(N[C@@H](c1ccccc1)[C@@H]1CCCCN1)c1cccc(C(F)(F)F)c1Cl | 454 | 212 | 371 | 33.2 |  | 10.5
c1cc(N[C@@H]2CCNC2)nc(-c2cnc3ccc(-c4cn[nH]c4)cn23)c1 | 380 | 409 | 331 | 41.7 |  | 0.00662
Cn1c(CCCCCCC(=O)NO)nc2cc(N(CCCl)CCCl)ccc21 | 479 | 497 | 439 | 5.9 |  | 10.5
CC[C@@]1(O)C(=O)OCC/2=C1/C=C3\N(CC4=CC5=CC(=CC=C5N=C34)O)C2=O | 436 | 518 | 271 | 0.742 |  | 2.09
CC(=O)Nc1ccc(C(=O)NC(C)(C)C)cc1 | 247 | 284 | 331 | 0.295 |  | 5.25
